Data: the NIST ThermoML archive (doi:10.1016/j.jct.2014.01.023)

Conditions: Crystal; for vapor or sublimation pressure: Transpiration method

CN1C(=O)N(C)C(=O)C(C)(C)C1=O [1,3,5,5-tetramethylpyrimidine-2,4,6(1H,3H,5H)-trione]
Conditions	vapor or sublimation pressure [kPa]
323.2 K	0.00344
326.2 K	0.00457
328.2 K	0.00555
332.1 K	0.00801
334.2 K	0.0099
336.2 K	0.01132
338.2 K	0.01415
340.1 K	0.01647
342.9 K	0.02036
346 K	0.02803
347.4 K	0.03182
349.2 K	0.03555
350.1 K	0.04039
351 K	0.04459
351.1 K	0.04429
352.9 K	0.05014
355.2 K	0.05715
356.2 K	0.06561
360.2 K	0.08943
365 K	0.135
367.6 K	0.168

CC1C(=O)N(C)C(=O)N(C)C1=O [1,3,5-trimethylbarbituric acid]
Conditions	Normal melting temperature [°C]	vapor or sublimation pressure [kPa]
322.5 K	–	0.00289
328.4 K	–	0.00528
332.6 K	–	0.00792
338.6 K	–	0.01482
343 K	–	0.02296
349.4 K	–	0.04451
354.5 K	–	0.06767
358.6 K	–	0.09676
DTA	90.50	–

CN1C(=O)NC(=O)C(C)(C)C1=O [1,5,5-trimethylbarbituric acid]
Conditions	vapor or sublimation pressure [kPa]
360 K	0.00265
366.1 K	0.00471
366.2 K	0.00487
374.2 K	0.00972
379.6 K	0.01551
380.8 K	0.01685
382.7 K	0.02034
386.8 K	0.02976
387.5 K	0.02935
388.7 K	0.03375
389.7 K	0.03771
392.6 K	0.04726
393.7 K	0.05266
396.7 K	0.06438
402.5 K	0.09884
406.7 K	0.1462
410.2 K	0.187
411.7 K	0.196
414.2 K	0.2461
419.9 K	0.3607
427.9 K	0.6087
